# In patent US20240218022A1, “ANTI-VISTA MACROCYCLIC PEPTIDES AND COMPOSITIONS” (BRISTOL-MYERS SQUIBB COMPANY, priority 2022, published 2024):
# Positions of bridges follow the written chain, without caps; N, C: chain ends. Non-standard residues stand in square brackets, D forms with d. Residues, ends and D or L forms follow the SMILES beside them. ξ: configuration not given here. Cit = NC(=O)NCCC[C@H](N)C(=O)O; Ile(3ξ) = CCC(C)[C@H](N)C(=O)O; Ahp(2) = CCCCC[C@H](N)C(=O)O; NHexGly = CCCCCCNCC(=O)O; Nle = CCCC[C@H](N)C(=O)O; Nva = CCC[C@H](N)C(=O)O; Abu = CC[C@H](N)C(=O)O
# Biological target: T1, mouse VISTA (mVISTA) (Mus musculus, UniProt Q9D659)
# T1 construct: expressed in transfected cells; host or cells: Human embryonic kidney 293T cells
# T1 sequence (Q9D659 33-308): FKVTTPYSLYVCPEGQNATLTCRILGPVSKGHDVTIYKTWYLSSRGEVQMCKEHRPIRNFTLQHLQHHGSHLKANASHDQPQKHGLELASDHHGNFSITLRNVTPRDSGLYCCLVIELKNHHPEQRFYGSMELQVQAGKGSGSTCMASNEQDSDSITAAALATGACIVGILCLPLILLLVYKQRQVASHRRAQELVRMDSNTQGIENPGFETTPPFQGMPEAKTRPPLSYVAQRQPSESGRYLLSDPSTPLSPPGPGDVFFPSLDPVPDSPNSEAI
# Experiment: Cell-Based Binding High-Content Assay For mVISTA (HC CBA mVISTA)
# Details: 293T cells expressing mouse VISTA; competition with biotinylated peptide (2 nM); read-out: HC CBA mVISTA IC50
# Procedure, shortened: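 mVISTA-293T, 4,000 cells/well; cpd ± washout step; biotin-peptide 2 nM final, 30 min RT; SA-Alexa 647 30 min; formaldehyde/Hoechst fix; HCS imaging; 4PL IC50.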
row,SMILES,IC50 [nM]
1,CCCCCCN1CC(=O)N[C@@H](Cc2ccc(O)cc2)C(=O)N[C@@H](C(C)CC)C(=O)NCC(=O)N[C@@H](CCCNC(=N)N)C(=O)N[C@@H](CC(C)C)C(=O)N[C@@H](CCCCC)C(=O)N2CCC[C@H]2C(=O)N[C@@H](C(C)C)C(=O)N[C@@H](CO)C(=O)N[C@H](C(=O)NCC(N)=O)CSCC(=O)N[C@@H](Cc2ccccc2)C(=O)N[C@@H](Cc2ccc(O)cc2)C(=O)N[C@@H](CC(=O)O)C1=O (stereo partly shown) [Example 1055] ({CH2CO}-FYD[NHexGly]Y[Ile(3ξ)]GRL[Ahp(2)]PVSCG-NH2; thioether N-14),36.9
2,CCCCCCN1CC(=O)N[C@@H](Cc2ccc(O)cc2)C(=O)N[C@@H](CCCCC)C(=O)N[C@@H](CCCCN)C(=O)N[C@@H](CCCNC(=N)N)C(=O)N[C@@H](CC(C)C)C(=O)N[C@@H](CCCCC)C(=O)N2CCC[C@H]2C(=O)N[C@@H](C(C)C)C(=O)N[C@@H](CO)C(=O)N[C@H](C(=O)NCC(N)=O)CSCC(=O)N[C@@H](Cc2ccccc2)C(=O)N[C@@H](Cc2ccc(O)cc2)C(=O)N[C@@H](CC(=O)O)C1=O [Example 1056] ({CH2CO}-FYD[NHexGly]Y[Ahp(2)]KRL[Ahp(2)]PVSCG-NH2; thioether N-14),17.1
3,CCCCCCN1CC(=O)N[C@@H](Cc2ccc(O)cc2)C(=O)N[C@@H](CCCCC)C(=O)N[C@@H](CCC(=O)O)C(=O)N[C@@H](CCCNC(=N)N)C(=O)N[C@@H](CC(C)C)C(=O)N[C@@H](CCCCC)C(=O)N2CCC[C@H]2C(=O)N[C@@H](C(C)C)C(=O)N[C@@H](CO)C(=O)N[C@H](C(=O)NCC(N)=O)CSCC(=O)N[C@@H](Cc2ccccc2)C(=O)N[C@@H](Cc2ccc(O)cc2)C(=O)N[C@@H](CC(=O)O)C1=O [Example 1057] ({CH2CO}-FYD[NHexGly]Y[Ahp(2)]ERL[Ahp(2)]PVSCG-NH2; thioether N-14),35.1
4,CCCCCCN1CC(=O)N[C@@H](Cc2ccc(O)cc2)C(=O)N[C@@H](CCCCN)C(=O)N[C@@H](CC(N)=O)C(=O)N[C@@H](CCCNC(=N)N)C(=O)N[C@@H](CC(C)C)C(=O)N[C@@H](CCCCC)C(=O)N2CCC[C@H]2C(=O)N[C@@H](C(C)C)C(=O)N[C@@H](CO)C(=O)N[C@H](C(=O)NCC(=O)O)CSCC(=O)N[C@@H](Cc2ccccc2)C(=O)N[C@@H](Cc2ccc(O)cc2)C(=O)N[C@@H](CC(=O)O)C1=O [Example 1058] ({CH2CO}-FYD[NHexGly]YKNRL[Ahp(2)]PVSCG-OH; thioether N-14),38.7
5,CCCCCCN1CC(=O)N[C@@H](Cc2ccc(O)cc2)C(=O)N[C@@H](C(C)CC)C(=O)NCC(=O)N[C@@H](CCCNC(=N)N)C(=O)N[C@@H](CC(C)C)C(=O)N[C@@H](CCCCC)C(=O)N2CCC[C@H]2C(=O)N[C@@H](C(C)C)C(=O)N[C@@H](CO)C(=O)N[C@H](C(=O)NCC(=O)O)CSCC(=O)N[C@@H](Cc2ccccc2)C(=O)N[C@@H](Cc2ccc(O)cc2)C(=O)N[C@@H](CC(=O)O)C1=O (stereo partly shown) [Example 1059] ({CH2CO}-FYD[NHexGly]Y[Ile(3ξ)]GRL[Ahp(2)]PVSCG-OH; thioether N-14),30
6,CCCCCCN1CC(=O)N[C@@H](Cc2ccc(O)cc2)C(=O)N[C@@H](CCC)C(=O)NCC(=O)N[C@@H](CCCNC(=N)N)C(=O)N[C@@H](CC(C)C)C(=O)N[C@@H](CCCCC)C(=O)N2CCC[C@H]2C(=O)N[C@@H](C(C)C)C(=O)N[C@@H](CO)C(=O)N[C@H](C(=O)NCC(N)=O)CSCC(=O)N[C@@H](Cc2ccccc2)C(=O)N[C@@H](Cc2ccc(O)cc2)C(=O)N[C@@H](CC(=O)O)C1=O [Example 1060] ({CH2CO}-FYD[NHexGly]Y[Nva]GRL[Ahp(2)]PVSCG-NH2; thioether N-14),29.9
7,CCCCCCN1CC(=O)N[C@@H](Cc2ccc(O)cc2)C(=O)N[C@@H](CCC)C(=O)NCC(=O)N[C@@H](CCCNC(=N)N)C(=O)N[C@@H](CC(C)C)C(=O)N[C@@H](CCCCC)C(=O)N2CCC[C@H]2C(=O)N[C@@H](C(C)C)C(=O)N[C@@H](CO)C(=O)N[C@H](C(=O)NCC(=O)O)CSCC(=O)N[C@@H](Cc2ccccc2)C(=O)N[C@@H](Cc2ccc(O)cc2)C(=O)N[C@@H](CC(=O)O)C1=O [Example 1061] ({CH2CO}-FYD[NHexGly]Y[Nva]GRL[Ahp(2)]PVSCG-OH; thioether N-14),46.3
8,CCCCCCN1CC(=O)N[C@@H](Cc2ccc(O)cc2)C(=O)N[C@@H](CC)C(=O)NCC(=O)N[C@@H](CCCNC(=N)N)C(=O)N[C@@H](CC(C)C)C(=O)N[C@@H](CCCCC)C(=O)N2CCC[C@H]2C(=O)N[C@@H](C(C)C)C(=O)N[C@@H](CO)C(=O)N[C@H](C(=O)NCC(=O)O)CSCC(=O)N[C@@H](Cc2ccccc2)C(=O)N[C@@H](Cc2ccc(O)cc2)C(=O)N[C@@H](CC(=O)O)C1=O [Example 1062] ({CH2CO}-FYD[NHexGly]Y[Abu]GRL[Ahp(2)]PVSCG-OH; thioether N-14),15.2
9,CCCCCCN1CC(=O)N[C@@H](Cc2ccc(O)cc2)C(=O)N[C@@H](C(C)C)C(=O)NCC(=O)N[C@@H](CCCNC(=N)N)C(=O)N[C@@H](CC(C)C)C(=O)N[C@@H](CCCCC)C(=O)N2CCC[C@H]2C(=O)N[C@@H](C(C)C)C(=O)N[C@@H](CO)C(=O)N[C@H](C(=O)NCC(=O)O)CSCC(=O)N[C@@H](Cc2ccccc2)C(=O)N[C@@H](Cc2ccc(O)cc2)C(=O)N[C@@H](CC(=O)O)C1=O [Example 1063] ({CH2CO}-FYD[NHexGly]YVGRL[Ahp(2)]PVSCG-OH; thioether N-14),28.6
10,CCCCCCN1CC(=O)N[C@@H](Cc2ccc(O)cc2)C(=O)N[C@@H](CCCCC)C(=O)NCC(=O)N[C@@H](CCCNC(N)=O)C(=O)N[C@@H](CC(C)C)C(=O)N[C@@H](CCCCC)C(=O)N2CCC[C@H]2C(=O)N[C@@H](C(C)C)C(=O)N[C@@H](CO)C(=O)N[C@H](C(=O)NCC(N)=O)CSCC(=O)N[C@@H](Cc2ccccc2)C(=O)N[C@@H](Cc2ccc(O)cc2)C(=O)N[C@@H](CC(=O)O)C1=O [Example 1064] ({CH2CO}-FYD[NHexGly]Y[Ahp(2)]G[Cit]L[Ahp(2)]PVSCG-NH2; thioether N-14),9.3
11,CCCCCCN1CC(=O)N[C@@H](Cc2ccc(O)cc2)C(=O)N[C@@H](CCCC)C(=O)N[C@@H](CC(=O)O)C(=O)N[C@@H](CCCNC(=N)N)C(=O)N[C@@H](CC(C)C)C(=O)N[C@@H](CCCCC)C(=O)N2CCC[C@H]2C(=O)N[C@@H](C(C)C)C(=O)N[C@@H](C(C)C)C(=O)N[C@H](C(=O)NCC(=O)O)CSCC(=O)N[C@@H](Cc2ccccc2)C(=O)N[C@@H](Cc2ccc(O)cc2)C(=O)N[C@@H](CC(=O)O)C1=O [Example 1065] ({CH2CO}-FYD[NHexGly]Y[Nle]DRL[Ahp(2)]PVVCG-OH; thioether N-14),15.6
12,CCCCCCN1CC(=O)N[C@@H](Cc2ccc(O)cc2)C(=O)N[C@@H](CC(C)C)C(=O)N[C@@H](CC(N)=O)C(=O)N[C@@H](CCCNC(=N)N)C(=O)N[C@@H](CC(C)C)C(=O)N[C@@H](CCCCC)C(=O)N2CCC[C@H]2C(=O)N[C@@H](C(C)C)C(=O)N[C@@H](C(C)C)C(=O)N[C@H](C(=O)NCC(=O)O)CSCC(=O)N[C@@H](Cc2ccccc2)C(=O)N[C@@H](Cc2ccc(O)cc2)C(=O)N[C@@H](CC(=O)O)C1=O [Example 1066] ({CH2CO}-FYD[NHexGly]YLNRL[Ahp(2)]PVVCG-OH; thioether N-14),2.4
13,CCCCCCN1CC(=O)N[C@@H](Cc2ccc(O)cc2)C(=O)N[C@@H](CCCC)C(=O)N[C@@H](CC(=O)O)C(=O)N[C@@H](CCCNC(=N)N)C(=O)N[C@@H](CC(C)C)C(=O)N[C@@H](CCCCC)C(=O)N2CCC[C@H]2C(=O)N[C@@H](C(C)C)C(=O)N[C@@H](Cc2c[nH]c3ccccc23)C(=O)N[C@H](C(=O)NCC(=O)O)CSCC(=O)N[C@@H](Cc2ccccc2)C(=O)N[C@@H](Cc2ccc(O)cc2)C(=O)N[C@@H](CC(=O)O)C1=O [Example 1067] ({CH2CO}-FYD[NHexGly]Y[Nle]DRL[Ahp(2)]PVWCG-OH; thioether N-14),28.9
14,CCCCCCN1CC(=O)N[C@@H](Cc2ccc(O)cc2)C(=O)N[C@@H](CC(C)C)C(=O)N[C@@H](CC(N)=O)C(=O)N[C@@H](CCCNC(=N)N)C(=O)N[C@@H](CC(C)C)C(=O)N[C@@H](CCCCC)C(=O)N2CCC[C@H]2C(=O)N[C@@H](C(C)C)C(=O)N[C@@H](Cc2c[nH]c3ccccc23)C(=O)N[C@H](C(=O)NCC(=O)O)CSCC(=O)N[C@@H](Cc2ccccc2)C(=O)N[C@@H](Cc2ccc(O)cc2)C(=O)N[C@@H](CC(=O)O)C1=O [Example 1068] ({CH2CO}-FYD[NHexGly]YLNRL[Ahp(2)]PVWCG-OH; thioether N-14),39.4
15,CCCCCCN1CC(=O)N[C@@H](Cc2ccc(O)cc2)C(=O)N[C@@H](CCCNC(=N)N)C(=O)N[C@@H](CC(N)=O)C(=O)N[C@@H](CCCNC(=N)N)C(=O)N[C@@H](CC(C)C)C(=O)N[C@@H](CCCCC)C(=O)N2CCC[C@H]2C(=O)N[C@@H](C(C)C)C(=O)N[C@@H](Cc2c[nH]c3ccccc23)C(=O)N[C@H](C(=O)NCC(=O)O)CSCC(=O)N[C@@H](Cc2ccccc2)C(=O)N[C@@H](Cc2ccc(O)cc2)C(=O)N[C@@H](CC(=O)O)C1=O [Example 1069] ({CH2CO}-FYD[NHexGly]YRNRL[Ahp(2)]PVWCG-OH; thioether N-14),48.3
16,CCCCCCN1CC(=O)N[C@@H](Cc2ccc(O)cc2)C(=O)N[C@@H](CCCC)C(=O)NCC(=O)N[C@@H](CCCNC(=N)N)C(=O)N[C@@H](CC(C)C)C(=O)N[C@@H](CCCCC)C(=O)N2CCC[C@H]2C(=O)N[C@@H](C(C)C)C(=O)N[C@@H](Cc2ccc(O)cc2)C(=O)N[C@H](C(=O)NCC(=O)O)CSCC(=O)N[C@@H](Cc2ccccc2)C(=O)N[C@@H](Cc2ccc(O)cc2)C(=O)N[C@@H](CC(=O)O)C1=O [Example 1070] ({CH2CO}-FYD[NHexGly]Y[Nle]GRL[Ahp(2)]PVYCG-OH; thioether N-14),18.1
